Experimental data taken from publication PMC7373994 (2020).

Key:
Test in all cases: in-line probing
[1] = test system: 53 tauA (RNA, riboswitch) GGAGAGUGAGUAGAAGCGGUCAGUGCAGGCAGCUGCGCGGGACAUUGCUCAGCAA; details: 100 mM KCl, 20 mM MgCl2, 100 mM Tris-HCl pH 8.3, 19°C; for binding: tested up to 1 mM, 53 or 68 tauA construct not specified; for KD: apparent
[2] = test system: 68 tauA M1 (A12U) (RNA, riboswitch) GGAGAGUGAGUAGUAGCGGUCAGUGCAGGCAGCUGCGCGGGACAUUGCUCAGCAACCAUUUCGCGGUUCA; details: 100 mM KCl, 20 mM MgCl2, 100 mM Tris-HCl pH 8.3, 19°C
[3] = test system: 68 tauA M2 (G38C) (RNA, riboswitch) GGAGAGUGAGUAGAAGCGGUCAGUGCAGGCAGCUGCGCGCGACAUUGCUCAGCAACCAUUUCGCGGUUCA; details: 100 mM KCl, 20 mM MgCl2, 100 mM Tris-HCl pH 8.3, 19°C
[4] = test system: 68 tauA M3 (G6C, A7U) (RNA, riboswitch) GGAGAGUCUGUAGAAGCGGUCAGUGCAGGCAGCUGCGCGGGACAUUGCUCAGCAA; details: 100 mM KCl, 20 mM MgCl2; 100 mM Tris-HCl pH 8.3, 19°C
[5] = test system: 68 tauA (RNA, riboswitch) GGAGAGUGAGUAGAAGCGGUCAGUGCAGGCAGCUGCGCGGGACAUUGCUCAGCAACCAUUUCGCGGUUCA; details: 100 mM KCl, 20 mM MgCl2; 100 mM Tris-HCl pH 8.3, 19°C; qualitative, wild type compared with mutants

**Q.** With `Cn1c(=O)[nH]c(=O)c2[nH]c(=O)[nH]c21` as the molecule, how does the binding [1] read?
**A.** no

**Q.** Which binding [1] does the source give for `Cn1c(=O)[nH]c2[nH]c(=O)[nH]c(=O)c21` here?
**A.** no

**Q.** Which binding [1] does the source give for `Cn1c(=O)[nH]c2c(=O)[nH]c(=O)[nH]c21` here?
**A.** no

**Q.** `O=c1[nH]c(=O)c2[nH]c(=O)[nH]c2[nH]1` was tested. Which KD ([1]; Figure S2C legend prints 4.3 µM instead) did it give?
**A.** ~ 25 µM

**Q.** What about the binding ([2]; tested up to 1000 µM) of the same molecule?
**A.** no

**Q.** What about the binding ([3]; tested up to 1000 µM) of the same molecule?
**A.** no

**Q.** What does the source list for `O=c1[nH]c(=O)c2[nH]cnc2[nH]1`?
**A.** binding [4]: no; KD ([1]; 36 h, two repeats): ~ 3.7 µM; binding [5]: yes; binding [2]: no; binding ([3]; artifact modulation at highest concentration): no

**Q.** How did the binding [1] turn out when `O=c1[nH]cnc2c1ncn2[C@@H]1O[C@H](CO)[C@@H](O)[C@H]1O` was run?
**A.** no
